According to patent US20120088827A1 (Profectus Biosciences, Inc., priority 2009, published 2012):

What was measured:
PGE2 = assay: Inhibition of PGE2 release in LPS-stimulated RAW 264.7 cells; assay type: cell-based; details: Mus musculus, RAW264.7; pretreated 2 hours, 1 μg/mL LPS 20-24 hours
Experimental: RAW 264.7 cells were seeded at 4×10^4 cells per well in complete growth medium in 96 well white TC plates with clear bottoms one day prior to the assay. The next day the cells were washed once and 100 μL fresh growth media was added. Cells were pretreated with 0.5 μL from a 6 point 200× dilution series of the test compounds in DMSO for 2 hours. Following pretreatment with the drugs, the inflammatory response was induced by adding 5 μL of a 20 μg/mL solution of LPS (Sigma). The cells were incubated in the presence of the drugs and 1 μg/mL LPS for another 20-24 hours. Typically after treatment the total DMSO was […] of the culture volume and the final concentrations of the compounds were approximately: 40, 20, 10, 1, 0.2 and 0 μM depending on the MW of each compound. Modified dilution series were prepared as needed to get adequate dose response curves without changing the % DMSO. Samples were run in duplicate or triplicate and included DMSO treated control wells with and without LPS stimulation. Drugs with a known activity such as Parthenolide or DHMEQ were run as experimental controls. After 20-24 hours LPS activation, the media supernatant was collected from the cells and replaced with fresh media. The supernatant samples were cleared by centrifugation at 1,000×g for 5 minutes, transferred to fresh storage plates, and stored frozen at −30° C.
After determining the appropriate supernatant dilutions experimentally, PGE2 levels in the supernatants were quantified using Parameter™ PGE2 Immunoassay (R&D Systems) according to the manufacturer's protocol. […] Absorbance at 450 nm with a reference at 595 nm was recorded using a Becton-Dickinson DTX 880 Multimode Detector.
The concentration of PGE2 in the unknown samples was determined from a curve-fit of the PGE2 standard absorbance data and multiplying by the dilution factor. […] Inhibition of the amount of PGE2 released in the drug treated wells was calculated relative to the maximum activation in the DMSO+LPS treated control wells (i.e., % inhibition=100−(drug+LPS treated)/(DMSO+LPS treated)). […]

[1] = system: NF-κB driven transcription (pNF-κB-luc reporter, 293 cells); assay: 293/NF-kB-luc reporter cell assay; assay type: cell-based; details: Homo sapiens; compound 2 hours, then 20 ng/ml TNF-α for 18 hours; luminescence
Experimental: Two reporter cell assays were used to determine the ability of the compounds of Examples 1-12 to inhibit NF-κB driven transcription. The first assay was a 293-cell based assay with a stably integrated pNF-κB-luc reporter plasmid containing 3 NF-κB promoter elements. The second assay was a 293-cell based assay with a stably integrated pTRH1-NF-κB-dscGFP reporter containing 4 NF-κB promoter elements. Cells were treated with 0, 0.2, 1, 10, 20 and 40 μM of the compounds of Example 1-12 for 2 hours then were induced with 20 ng/ml TNF-α for 18 hours. Following the induction, luminescence or fluorescence was quantified using a Beckman-Coulter 2300 plate reader. […] As a control, 0.5% DMSO treated and untreated cells were compared to verify that the compounds of Examples 1-12 had no effect on the expression of luciferase or in the readout of the assay. There was a slight decrease in the output from the assay in the DMSO treated population although it was not statistically significant. As a result of the controls, the decrease in activity in the drug treated samples was compared to the DMSO control sample.

Row | Structure (SMILES) | EC50 (PGE2) [µM] | EC50 [1] [µM]
1 | CC(C)CC(=O)Oc1ccccc1C(=O)NC1=CC(=O)C2OC2C1O (racemic) [Example 1, (±)-2-(2-hydroxy-5-oxo-7-oxabicyclo[4.1.0]hept-3-en-3-ylcarbamoyl)phenyl 3-methylbutanoate] | 1.9 | 18
2 | CC(C)OC(=O)Oc1ccccc1C(=O)NC1=CC(=O)C2OC2C1OC(=O)OC(C)C (racemic) [Example 2, (±)-3-(2-isopropoxycarbonyloxy-benzoylamino)-5-oxo-7-oxa-bicyclo[4.1.0]hept-3-en-2-yl ester isopropyl ester] | 2.7 | 11
3 | O=C(CC1CCCCC1)Oc1ccccc1C(=O)NC1=CC(=O)C2OC2C1O (racemic) [Example 3, (±)-2-(2-hydroxy-5-oxo-7-oxabicyclo[4.1.0]hept-3-en-3-ylcarbamoyl)phenyl 2-cyclohexylacetate] | 1.1 | 14
4 | CCCC(C)C(=O)Oc1ccccc1C(=O)NC1=CC(=O)C2OC2C1O (racemic) [Example 4, (±)-2-(2-hydroxy-5-oxo-7-oxabicyclo[4.1.0]hept-3-en-3-ylcarbamoyl)phenyl 2-methylpentanoate] | – | 10
5 | CCCCC(CC)C(=O)Oc1ccccc1C(=O)NC1=CC(=O)C2OC2C1O (racemic) [Example 5, (±)-2-(2-hydroxy-5-oxo-7-oxabicyclo[4.1.0]hept-3-en-3-ylcarbamoyl)phenyl 2-ethylhexanoate] | – | 15
6 | CC(C)(C)CC(=O)Oc1ccccc1C(=O)NC1=CC(=O)C2OC2C1O (racemic) [Example 6, (±)-2-(2-hydroxy-5-oxo-7-oxabicyclo[4.1.0]hept-3-en-3-ylcarbamoyl)phenyl 3,3-dimethylbutanoate] | – | 8
7 | CC(C)OC(=O)Oc1ccccc1C(=O)NC1=CC(=O)C2OC2C1O (racemic) [Example 7, (±)-2-(2-hydroxy-5-oxo-7-oxabicyclo[4.1.0]hept-3-en-3-ylcarbamoyl)phenyl isopropyl carbonate] | – | 17
8 | CC(C)OC(=O)OC1C(NC(=O)c2ccccc2O)=CC(=O)C2OC21 (racemic) [Example 8] | – | 10
